Source: patent US9695155B2, “Herbicidal substituted pyrimidinyloxy benzene compounds” (E. I. DU PONT DE NEMOURS AND COMPANY, priority 2013, dated 2017)

Assays:
barnyardgrass [1] = experiment: Test A preemergence; format: in vivo, Echinochloa crus-galli
Method in brief: (§1)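 Compounds in non-phytotoxic solvent with surfactant applied as soil spray preemergence, or postemergence to plants 2-10 cm at one- to two-leaf stage, in loam/sand. After approximately 10 days in greenhouse, injury rated visually versus untreated controls, 0 (no effect) to 100 (complete control).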

large (Lg) crabgrass [2] = experiment: Test A preemergence; format: in vivo, Digitaria sanguinalis
Method in brief: as §1

giant foxtail [3] = experiment: Test A preemergence; format: in vivo, Setaria faberii
Method in brief: as §1

morningglory [4] = experiment: Test A preemergence; format: in vivo, Ipomoea spp.
Method in brief: as §1

pigweed [5] = experiment: Test A preemergence; format: in vivo, Amaranthus retroflexus
Method in brief: as §1

velvetleaf [6] = experiment: Test A preemergence; format: in vivo, Abutilon theophrasti
Method in brief: as §1

wheat [7] = experiment: Test A preemergence; format: in vivo, Triticum aestivum
Method in brief: as §1

corn [8] = experiment: Test A preemergence; format: in vivo, Zea mays
Method in brief: as §1

barnyardgrass [9] = experiment: Test A postemergence; format: in vivo, Echinochloa crus-galli
Method in brief: as §1

large (Lg) crabgrass [10] = experiment: Test A postemergence; format: in vivo, Digitaria sanguinalis
Method in brief: as §1

giant foxtail [11] = experiment: Test A postemergence; format: in vivo, Setaria faberii
Method in brief: as §1

morningglory [12] = experiment: Test A postemergence; format: in vivo, Ipomoea spp.
Method in brief: as §1

pigweed [13] = experiment: Test A postemergence; format: in vivo, Amaranthus retroflexus
Method in brief: as §1

velvetleaf [14] = experiment: Test A postemergence; format: in vivo, Abutilon theophrasti
Method in brief: as §1

wheat [15] = experiment: Test A postemergence; format: in vivo, Triticum aestivum
Method in brief: as §1

corn [16] = experiment: Test A postemergence; format: in vivo, Zea mays
Method in brief: as §1

rice = experiment: Test B flooded paddy test; format: in vivo, Oryza sativa; conditions: Flood, 250 g ai/ha; 0 to 100 scale where 0 is no effect and 100 is complete control
Method in brief: (§2)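 Scores from 0 (no effect) to 100 (complete control) are visual comparisons with controls, taken 13 to 15 days after compound was applied into floodwater 3 cm deep around 2-leaf plants.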

sedge, umbrella = experiment: Test B flooded paddy test; format: in vivo, Cyperus difformis; conditions: Flood, 250 g ai/ha; 0 to 100 scale where 0 is no effect and 100 is complete control
Method in brief: as §2

Heteranthera limosa = experiment: Test B flooded paddy test; format: in vivo; conditions: Flood, 250 g ai/ha; 0 to 100 scale where 0 is no effect and 100 is complete control
Method in brief: as §2

barnyardgrass [17] = experiment: Test B flooded paddy test; format: in vivo, Echinochloa crus-galli; conditions: Flood, 250 g ai/ha; 0 to 100 scale where 0 is no effect and 100 is complete control
Method in brief: as §2

[18] = 125 g ai/ha, 0 to 100 scale where 0 is no effect and 100 is complete control
[19] = 500 g ai/ha, 0 to 100 scale, 0 no effect, 100 complete control, approx. 10 days
[20] = 500 g ai/ha, 0 to 100 scale, 0 no effect, 100 complete control
[21] = 1000 g ai/ha, 0 to 100 scale, 0 no effect, 100 complete control
[22] = 1000 g ai/ha, 0 to 100 scale, 0 no effect, 100 complete control, approx. 10 days

Clc1cnc(Oc2ccccc2-n2cc(-c3ccccc3)cn2)nc1 [Compound 22]
Plant response rating, Barnyardgrass (barnyardgrass [1]; [18]): 0
Barnyardgrass plant response rating (barnyardgrass [1]; [19]): 20
Plant response rating, Crabgrass, Large (large (Lg) crabgrass [2]; [18]): 20
Crabgrass, Large plant response rating (large (Lg) crabgrass [2]; [19]): 90
Plant response rating, Foxtail, Giant (giant foxtail [3]; [18]): 20
Foxtail, Giant plant response rating (giant foxtail [3]; [19]): 90
Plant response rating, Morningglory (morningglory [4]; [18]): 0
Morningglory plant response rating (morningglory [4]; [19]): 0
Plant response rating, Pigweed (pigweed [5]; [18]): 20
Pigweed plant response rating (pigweed [5]; [19]): 90
Plant response rating, Velvetleaf (velvetleaf [6]; [18]): 0
Velvetleaf plant response rating (velvetleaf [6]; [19]): 20
Plant response rating, Wheat (wheat [7]; [18]): 0
Wheat plant response rating (wheat [7]; [19]): 0
Plant response rating, Corn (corn [8]; [18]): 0
Corn plant response rating (corn [8]; [19]): 0
Plant response rating, Barnyardgrass (barnyardgrass [9]; [18]): 50
Plant response rating, Barnyardgrass (barnyardgrass [9]; [20]): 70
Plant response rating, Crabgrass, Large (large (Lg) crabgrass [10]; [18]): 30
Plant response rating, Crabgrass, Large (large (Lg) crabgrass [10]; [20]): 70
Plant response rating, Foxtail, Giant (giant foxtail [11]; [18]): 40
Plant response rating, Foxtail, Giant (giant foxtail [11]; [20]): 90
Plant response rating, Morningglory (morningglory [12]; [18]): 80
Plant response rating, Morningglory (morningglory [12]; [20]): 90
Plant response rating, Pigweed (pigweed [13]; [18]): 50
Plant response rating, Pigweed (pigweed [13]; [20]): 100
Plant response rating, Velvetleaf (velvetleaf [14]; [18]): 50
Plant response rating, Velvetleaf (velvetleaf [14]; [20]): 100
Plant response rating, Wheat (wheat [15]; [18]): 0
Plant response rating, Wheat (wheat [15]; [20]): 0
Plant response rating, Corn (corn [16]; [18]): 0
Plant response rating, Corn (corn [16]; [20]): 30
Plant response rating, Rice (rice): 40
Plant response rating, Sedge, Umbrella (sedge, umbrella): 80
Plant response rating, Ducksalad (Heteranthera limosa): 65
Plant response rating, Barnyardgrass (barnyardgrass [17]): 20

C=C(C)c1cn(-c2c(Br)cccc2Oc2ncc(Cl)cn2)nn1 [Compound 114]
Plant response rating, Barnyardgrass (barnyardgrass [1]; [21]): 90
Plant response rating, Crabgrass, Large (large (Lg) crabgrass [2]; [21]): 100
Foxtail, Giant plant response rating (giant foxtail [3]; [22]): 100
Morningglory plant response rating (morningglory [4]; [22]): 10
Pigweed plant response rating (pigweed [5]; [22]): 100
Velvetleaf plant response rating (velvetleaf [6]; [22]): 100
Wheat plant response rating (wheat [7]; [22]): 40
Plant response rating, Corn (corn [8]; [21]): 20
Plant response rating, Barnyardgrass (barnyardgrass [9]; [21]): 100
Plant response rating, Crabgrass, Large (large (Lg) crabgrass [10]; [21]): 90
Plant response rating, Foxtail, Giant (giant foxtail [11]; [21]): 90
Plant response rating, Morningglory (morningglory [12]; [21]): 80
Plant response rating, Pigweed (pigweed [13]; [21]): 100
Plant response rating, Velvetleaf (velvetleaf [14]; [21]): 100
Plant response rating, Wheat (wheat [15]; [21]): 60
Plant response rating, Corn (corn [16]; [21]): 70
Plant response rating, Rice (rice): 0
Plant response rating, Sedge, Umbrella (sedge, umbrella): 30
Plant response rating, Ducksalad (Heteranthera limosa): 50
Plant response rating, Barnyardgrass (barnyardgrass [17]): 0

FC(F)(F)c1cnc(Oc2ccccc2-n2ccc(C(F)(F)F)n2)nc1 [Compound 4]
Barnyardgrass plant response rating (barnyardgrass [1]; [18]): 0
Barnyardgrass plant response rating (barnyardgrass [1]; [19]): 0
Crabgrass, Large plant response rating (large (Lg) crabgrass [2]; [18]): 0
Crabgrass, Large plant response rating (large (Lg) crabgrass [2]; [19]): 0
Foxtail, Giant plant response rating (giant foxtail [3]; [18]): 0
Foxtail, Giant plant response rating (giant foxtail [3]; [19]): 0
Morningglory plant response rating (morningglory [4]; [18]): 0
Morningglory plant response rating (morningglory [4]; [19]): 0
Pigweed plant response rating (pigweed [5]; [18]): 0
Pigweed plant response rating (pigweed [5]; [19]): 0
Velvetleaf plant response rating (velvetleaf [6]; [18]): 0
Velvetleaf plant response rating (velvetleaf [6]; [19]): 0
Wheat plant response rating (wheat [7]; [18]): 0
Wheat plant response rating (wheat [7]; [19]): 0
Corn plant response rating (corn [8]; [18]): 0
Corn plant response rating (corn [8]; [19]): 0
Plant response rating, Barnyardgrass (barnyardgrass [9]; [18]): 0
Plant response rating, Barnyardgrass (barnyardgrass [9]; [20]): 0
Plant response rating, Crabgrass, Large (large (Lg) crabgrass [10]; [18]): 0
Plant response rating, Crabgrass, Large (large (Lg) crabgrass [10]; [20]): 0
Plant response rating, Foxtail, Giant (giant foxtail [11]; [18]): 0
Plant response rating, Foxtail, Giant (giant foxtail [11]; [20]): 0
Plant response rating, Morningglory (morningglory [12]; [18]): 0
Plant response rating, Morningglory (morningglory [12]; [20]): 0
Plant response rating, Pigweed (pigweed [13]; [18]): 0
Plant response rating, Pigweed (pigweed [13]; [20]): 20
Plant response rating, Velvetleaf (velvetleaf [14]; [18]): 0
Plant response rating, Velvetleaf (velvetleaf [14]; [20]): 0
Plant response rating, Wheat (wheat [15]; [18]): 0
Plant response rating, Wheat (wheat [15]; [20]): 0
Plant response rating, Corn (corn [16]; [18]): 0
Plant response rating, Corn (corn [16]; [20]): 0
Plant response rating, Rice (rice): 0
Plant response rating, Sedge, Umbrella (sedge, umbrella): 0
Plant response rating, Ducksalad (Heteranthera limosa): 0
Plant response rating, Barnyardgrass (barnyardgrass [17]): 0
